Data as given in patent US9050264B2, “Cellulose capsules and methods for making them” (University of Iowa Research Foundation, priority 2009, dated 2015).
Structures can show the parent of a compound that is named as a salt. Values belong to the molecule of their own block, whether it stands above or below them.

Assays:
Type in all cases: physicochemical
[1] = Release of KCl from cellulose capsules in unstirred aqueous urea solutions (potassium ion selective electrode); conditions: cellulose capsule (shell 0.07-0.10 mm), KCl 500 mg, unstirred 200 mL, 37 C
Experimental: Cellulose capsule shells (shell thickness 0.07-0.10 mm), prepared according to Example 2, were filled with KCl (500 mg) and subjected to the release study in the unstirred dissolution medium (200 mL) containing 0.0, 1.5, 3.0, 5.5, or 8.0 M urea at 37±0.5° C. using a Hansen Research USP II basket apparatus (Hansen Research Corp., Chatsworth, Calif.). The amount of KCl released was analyzed using a potassium ion selective electrode connected to a pH meter (Orion model 420, Fisher Scientific, Inc., Pittsburgh, Pa.).

[2] = Release of diphenhydramine hydrochloride from cellulose capsules in water (USP II basket, HPLC); conditions: cellulose capsule, water 900 mL
Experimental: Cellulose capsule shells (shell thickness 0.07-1.0 mm), prepared according to Example 2, were filled with diphenhydramine hydrochloride and lactose (400 mg) mixed in different weight-by-weight ratios (50:50, 25:75, 12.5:87.5, 6.25:93.75 or 3.75:96.25 weight ratios of diphenhydramine hydrochloride and lactose, respectively). The release study was performed in water (900 mL) at 37±0.5° C. and 100±2 r.p.m. using a Hansen Research USP II basket apparatus (Hansen Research Corp., Chatsworth, Calif.). The amount of drug released was determined by HPLC using a fully automated Shimadzu LC-10A high performance liquid chromatograph, equipped with a C18 analytical column (Supelco). The drug was eluted with a 1:4 (v/v) mixture of methanol:water (containing 1% triethylamine and 2% glacial acetic acid) at a flow rate of 0.2 mL/min and detected at a wavelength of 256 nm. […] The steady state release rates mentioned above depended linearly with the calculated osmotic pressure developed inside the capsule shell.

[3] = Dissolution study of acetaminophen release from cellulose capsules in water (USP II basket, HPLC); conditions: for release rate: acetaminophen 50 mg + lactose 150 mg, water 900 mL, 37 C, 100 r.p.m.
Experimental: Cellulose capsule shells of three different shell thicknesses (0.05, 0.06 and 0.07 mm) were prepared from the methylolcellulose solution (cellulose content 4.4%, w/w) according to Example 2. They were filled with a homogeneously mixed powder blend of acetaminophen (50 mg) and lactose (150 mg). The dissolution study was performed in water (900 mL) at 37±0.5° C. and 100±2 r.p.m. using a Hansen Research USP II basket apparatus (Hansen Research Corp., Chatsworth, Calif.). The amount of drug released was determined by high performance liquid chromatography (HPLC) using an absolute calibration method and a fully automated Shimadzu LC-6A high performance liquid chromatograph, equipped with a C18 analytical column (Supelco—Sigma Aldrich, Bellefonte, Pa.). The drug was eluted with a 1:3 methanol:water mixture at a flow rate of 0.5 mL/min and detected at a wavelength of 243 nm. The release of acetaminophen increased linearly with time (see FIG. 4A).
Cellulose capsule shells (shell thickness 0.07-0.10 mm) prepared according to Example 2 were filled with 50, 100 and 200 mg of acetaminophen. The release studies were carried out in purified water (900 mL) at 37±0.5° C. and 100±2 r.p.m. The amount of acetaminophen released over time was determined by HPLC using conditions described above.
Cellulose capsule shells (shell thickness 0.07-0.10 mm), prepared according to Example 2, were filled with a homogeneously mixed powder blend of acetaminophen (100 mg) and 15, 50, 100, 150, or 200 mg of polyethylene glycol (PEG) 8000 (corresponding to the percent weight ratio of 87:13, 67:33, 50:50, 40:60, or 33:67, respectively, for the total powder fill in the capsule). The release studies were performed in purified water (900 mL) at 37±0.5° C. and 100±2 r.p.m. using the Hansen Research USP II basket apparatus (Hansen Research Corp., Chatsworth, Calif.). The amount of acetaminophen released was determined by HPLC as described above. […] Above 60% w/w PEG 8000 in the formulation, there was no change in the release rate compared to the rate at 50% PEG in the mixture.
Cellulose capsule shells (shell thickness 0.07-0.1 mm) prepared according to Example 2 were filled with acetaminophen (100 mg) and 50, 100 and 200 mg potassium chloride (KCl) (corresponding to the weight ratio of 33:67, 50:50 or 67:33, respectively, for the total powder fill in the capsule). The amounts of acetaminophen released at different times were determined by HPLC, following the procedure described above.

[4] = Dissolution study of cellulose:Eudragit S100 capsule shells in pH 3.0 and pH 7.4 buffers (USP II basket, HPLC); conditions: Cellulose:Eudragit (90:10%, w/w) capsule shell ~0.08 mm, acetaminophen 50 mg + anhydrous lactose 150 mg
Experimental: Cellulose:Eudragit (90:10%, w/w) capsule shells (shell thickness˜0.08 mm) prepared according to Example 2 were filled with a homogeneously mixed powder blend of acetaminophen (50 mg) and anhydrous lactose (150 mg) and subjected to dissolution study first in pH 3.0 phthalate buffer (900 mL) for 3 h at 37±0.5° C. and 100±2 r.p.m followed by in pH 7.4 phosphate buffer (900 mL) for 5 h at 37±0.5° C. and 100±2 r.p.m. using a Hansen Research USP II basket apparatus (Hansen Research Corp., Chatsworth, Calif.). The amount of drug released was determined by HPLC according to the method described above. […] The higher steady-state release rate observed for acetaminophen at pH 7.4 is attributed to the dissolution of Eudragit, causing the capsule shell to become more porous.
Cellulose, cellulose-Eudragit (90:10) and cellulose:Eudragit (90:10%, w/w) capsule shells (shell thickness˜0.08 mm) were prepared according to Example 2. The dissolution test was carried out in pH 7.4 phosphate buffer (900 mL) for 5 h at 37±0.5° C. and 100±2 r.p.m. using a Hansen Research USP II basket apparatus (Hansen Research Corp., Chatsworth, Calif.). The amount of drug released was determined by HPLC according to the method described above. FIG. 12 compares the release results from the three capsule systems. The steady-state release rates calculated were 1.8, 3.1 and 4.6 mg/h, respectively.

Structure (SMILES): [Cl-].[K+] [KCl, potassium chloride]
- steady state release rate ([1]; 0.0 M urea): 142.8 mg/h
- steady state release rate ([1]; 1.5 M urea): 115.8 mg/h
- steady state release rate ([1]; 3.0 M urea): 100.2 mg/h
- steady state release rate ([1]; 5.5 M urea): 73.8 mg/h
- steady state release rate ([1]; 8.0 M urea): 46.2 mg/h

- steady-state release rate ([2]; 3.75:96.25 diphenhydramine hydrochloride:lactose core powder mixture (400 mg)): 3.92 mg/h
- steady-state release rate ([2]; 6.25:93.75 diphenhydramine hydrochloride:lactose core powder mixture (400 mg)): 7.58 mg/h
- steady-state release rate ([2]; 12.5:87.5 diphenhydramine hydrochloride:lactose core powder mixture (400 mg)): 12.70 mg/h
- steady-state release rate ([2]; 25:75 diphenhydramine hydrochloride:lactose core powder mixture (400 mg)): 34.17 mg/h
- steady-state release rate ([2]; 50:50 diphenhydramine hydrochloride:lactose core powder mixture (400 mg)): 67.96 mg/h
Structure (SMILES): CN(C)CCOC(c1ccccc1)c1ccccc1 [diphenhydramine hydrochloride]

- steady-state release rate ([3]; cellulose capsule (shell 0.07-0.10 mm) filled with 50 mg acetaminophen, purified water): 3.05 mg/h
- steady-state release rate ([3]; cellulose capsule (shell 0.07-0.10 mm) filled with 100 mg acetaminophen, purified water): 3.43 mg/h
- steady-state release rate ([3]; cellulose capsule (shell 0.07-0.10 mm) filled with 200 mg acetaminophen, purified water): 3.15 mg/h
- steady-state release rate ([3]; cellulose capsule (shell 0.07-0.10 mm), 33:67 (% w/w) acetaminophen:PEG 8000 (100 mg + 200 mg), purified water): 7.38 mg/h
- steady-state release rate ([3]; cellulose capsule (shell 0.07-0.1 mm), 33:67 acetaminophen:KCl mixture): 9.94 mg/h
- steady-state release rate ([3]; cellulose capsule (shell 0.07-0.10 mm), 40:60 (% w/w) acetaminophen:PEG 8000 (100 mg + 150 mg), purified water): 7.17 mg/h
- steady-state release rate ([3]; cellulose capsule (shell 0.07-0.10 mm), 50:50 (% w/w) acetaminophen:PEG 8000 (100 mg + 100 mg), purified water): 6.95 mg/h
- steady-state release rate ([3]; cellulose capsule (shell 0.07-0.1 mm), 50:50 acetaminophen:KCl mixture): 10.14 mg/h
- steady-state release rate ([3]; cellulose capsule (shell 0.07-0.10 mm), 67:33 (% w/w) acetaminophen:PEG 8000 (100 mg + 50 mg), purified water): 6.62 mg/h
- steady-state release rate ([3]; cellulose capsule (shell 0.07-0.1 mm), 67:33 acetaminophen:KCl mixture): 11.41 mg/h
- steady-state release rate ([3]; cellulose capsule (shell 0.07-0.10 mm), 87:13 (% w/w) acetaminophen:PEG 8000 (100 mg + 15 mg), purified water): 5.92 mg/h
- release rate ([3]; cellulose capsule shell thickness 0.05 mm): 5.25 mg/h
- release rate ([3]; cellulose capsule shell thickness 0.06 mm): 4.30 mg/h
- release rate ([3]; cellulose capsule shell thickness 0.07 mm): 3.06 mg/h
- steady-state release rate ([4]; pH 3.0 phthalate buffer, 3 h): 2.68 mg/h
- steady-state release rate ([4]; pH 7.4 phosphate buffer, 5 h): 4.76 mg/h
Structure (SMILES): CC(=O)Nc1ccc(O)cc1 [acetaminophen]
